Test results published in patent US20120208848A1 (NEUROSYSTEC CORPORATION, priority 2005, published 2012).

Assays:
Format in all cases: physicochemical
[1] = Solubility of gacyclidine chloride salt and free base in water / Ringer's solution
Source text: The free base form of gacyclidine is poorly soluble in water and adheres to plastic surfaces.

[2] = Maintenance of gacyclidine in solution (HPLC solution concentration over time); details: 20° C.
Method: Gacyclidine was detected using a Surveyor HPLC system (Thermo Electron). A Grace Vydac C8 MASS SPEC column (cat #208MS5210; S/N NE981208-3-7) purchased from The Nest Group (Southboro, Mass.) was employed for these analyses. The chromatographic column was maintained at 30° C. Samples were prepared in 12 mm×32 mm autosampler vials (Thermo Electron, A4954-010) and maintained at 20° C. in the autosampler.
For maximum accuracy, a ‘full-loop’ injection protocol was employed, in which 80.7 μL was withdrawn from the vial to over-fill a 20 μL injection loop. The entire sample contained in the 20 μL injection loop was applied to the C8 chromatography column. The sample was then eluted at a flow rate of 300 μL/min with a step gradient composed of water containing 0.1% (volume/volume) trifluoroacetic acid (buffer A) and acetonitrile containing 0.1% (volume/volume) trifluoroacetic acid (buffer B). The step gradient consisted of elution with 100% buffer A from 0 to 5 minutes; 80% buffer A-20% buffer B from 5 to 15 minutes; 100% buffer B from 15 to 20 minutes and 100% buffer A from 20 to 25 minutes.
The column eluant was monitored at 234 nm by use of a Thermo Electron PDA UV detector. […] The presence of gacyclidine was confirmed by connecting the column eluant, after passage through the UV detector, to an AQA mass spectrometer (Thermo Electron).
An aliquot (10 μL) of these solutions was then added to 10.0 mL of either Ringer's Lactate (pH 6.6), Ringer's Lactate containing 100 μM NaOH (pH 7.5), or 0.1 N HCl (pH 1.0) to give a final drug concentration of 100 μM. Aliquots of these drug solutions were transferred to autosampler vials and maintained at 20° C. until being analyzed by HPLC.

[3] = Solubility of gacyclidine as a function of pH and excipients, room temperature, glass vials
Method: Thereafter the mixture remained standing at room temperature for two days.
The pH of the mixture was determined by use of a SympHony glass calomel micro combination pH electrode obtained from VWR (Cat. No. 14002-776). Oakton standard reference solutions at pH 7.00±0.01 (25° C.; 7.02 at 20° C.), 4.01±0.01 (25° C.; 4.00 at 20° C.) and 10.00 (25° C.; 10.05 at 20° C.) were obtained from Cole-Parmer. These standard pH solutions were used to calibrate a Cole-Parmer Model 5996-60 analog pH meter equipped with a SympHony electrode to within 0.01 pH units of reference solutions.

[4] = excess free base added to a solution at physiological pH

Compound: CC1CCCCC1(c1cccs1)N1CCCCC1.Cl (stereo not shown) [gacyclidine, 1-(2-methyl-1-thiophen-2-yl-cyclohexyl)-piperidine hydrochloride]
- pH of solution ([1]; chloride salt, up to 150 mg/ml in water or unbuffered solution): about 4.4
- final concentration of dissolved gacyclidine [1, 4]: ≤ 0.02 mg/mL
- pH of solution [1, 4]: ≤ 7.7
- solubility ([1]; pH 4.4, chloride salt of the acid form, water or unbuffered Ringer's solution, read-out: solubility (solutions containing up to)): ≤ 150000 µg/mL
- gacyclidine remaining in solution (HPLC) ([1]; pH 9.5, 0.05 M CAPSO, 0.1 M NaCl, 0.3 mg/mL added, room temperature, 2 days): 0.0006 mg/mL
- solubility thermodynamic ([1]; saline or isotonic, thermodynamic from solid, free base in Ringer's solution reacting with dissolved carbon dioxide, pH 7.6): ~20 µg/mL
- concentration of gacyclidine ([2]; DMSO stock 1:1000 (0.1% DMSO), Ringer's Lactate pH 7.5, 100 μM initial, 0-3 hours): 97.5 µM
- concentration of gacyclidine ([2]; DMSO stock 1:1000, 0.1N HCl (pH 1.0), 100 μM initial, 0-3 hours): 100.3 µM
- concentration of gacyclidine ([2]; DMSO stock 1:1000, 0.1N HCl (pH 1.0), 100 μM initial, 3-6 hours): 100.2 µM
- concentration of gacyclidine ([2]; DMSO stock 1:1000, 0.1N HCl (pH 1.0), 100 μM initial, 16-19 hours): 100.6 µM
- concentration of gacyclidine ([2]; DMSO stock 1:1000, Ringer's Lactate pH 6.6, 100 μM initial, 0-3 hours): 96.0 µM
- concentration of gacyclidine ([2]; DMSO stock 1:1000, Ringer's Lactate pH 6.6, 100 μM initial, 3-6 hours): 94.9 µM
- concentration of gacyclidine ([2]; DMSO stock 1:1000, Ringer's Lactate pH 6.6, 100 μM initial, 16-19 hours): 91.3 µM
- concentration of gacyclidine ([2]; DMSO stock 1:1000, Ringer's Lactate pH 7.5, 100 μM initial, 3-6 hours): 90.4 µM
- concentration of gacyclidine ([2]; DMSO stock 1:1000, Ringer's Lactate pH 7.5, 100 μM initial, 16-19 hours): 79.3 µM
- concentration of gacyclidine ([2]; aqueous stock 1:1000, 0.1N HCl (pH 1.0), 100 μM initial, 0-3 hours): 99.4 µM
- concentration of gacyclidine ([2]; aqueous stock 1:1000, 0.1N HCl (pH 1.0), 100 μM initial, 3-6 hours): 99.8 µM
- concentration of gacyclidine ([2]; aqueous stock 1:1000, 0.1N HCl (pH 1.0), 100 μM initial, 16-19 hours): 100.2 µM
- concentration of gacyclidine ([2]; aqueous stock 1:1000, Ringer's Lactate pH 6.6, 100 μM initial, 0-3 hours): 95.1 µM
- concentration of gacyclidine ([2]; aqueous stock 1:1000, Ringer's Lactate pH 6.6, 100 μM initial, 3-6 hours): 92.6 µM
- concentration of gacyclidine ([2]; aqueous stock 1:1000, Ringer's Lactate pH 6.6, 100 μM initial, 16-19 hours): 87.7 µM
- concentration of gacyclidine ([2]; aqueous stock 1:1000, Ringer's Lactate pH 7.5, 100 μM initial, 0-3 hours): 88.2 µM
- concentration of gacyclidine ([2]; aqueous stock 1:1000, Ringer's Lactate pH 7.5, 100 μM initial, 3-6 hours): 72.0 µM
- concentration of gacyclidine ([2]; aqueous stock 1:1000, Ringer's Lactate pH 7.5, 100 μM initial, 16-19 hours): 59.7 µM
- gacyclidine remaining in solution at high pH ([3]; 0.1% CAPTISOL, 1 mM added, room temperature, two days, glass): about 14 μM
- gacyclidine remaining in solution at high pH ([3]; 0.1% SOLUTOL HS15, 1 mM added, room temperature, two days, glass): ~96 μM
- gacyclidine remaining in solution at high pH ([3]; 0.1% TWEEN 80, 1 mM added, room temperature, two days, glass): ~42 μM
- gacyclidine base maintained in solution per gram of carrier molecule ([3]; CAPTISOL, room temperature): 0.004 grams per gram of carrier mole
- gacyclidine base maintained in solution per gram of carrier molecule ([3]; SOLUTOL HS 15, room temperature): 0.02 grams per gram of carrier mole
- gacyclidine base maintained in solution per gram of carrier molecule ([3]; TWEEN 80, room temperature): 0.01 grams per gram of carrier mole
- solubility kinetic at 2 days ([3]; buffered aqueous solution, aqueous buffer, kinetic from dmso stock, pH 9.7, 1 mM added, room temperature, two days, glass, presence or absence of 0.1% SOLUPHOR P): 2.6 µM
- pH above which precipitation of gacyclidine was observed ([3]; hydrochloride salt diluted to 1 mM in buffered aqueous solution): > 7
- gacyclidine remaining in solution, % of the added gacyclidine ([3]; pH 9.7, 1 mM added, room temperature, two days, glass, presence or absence of 0.1% SOLUPHOR P): 0.26%
- solubility ([3]; thermodynamic from solid, hydrochloride salt, water, read-out: final concentration giving a clear solution in water): ≥ 550000 µM
